In patent US20260053171A1, “METHANOGEN INHIBITORS” (AGRIZERONZ LIMITED PARTNERSHIP, priority 2022, published 2026) one finds inhibition data, which are given here for 27 compounds.

In the assay the test system is methane production in rumen fluid. The assay is described as follows: Rumen in vitro (RIV) assay, methane production from rumen fluid incubations. It is filed as cell-based, cattle. To be noted: Bos taurus, read-out: RIV % methane reduction +/− SD. The gist of the method:
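Rumen fluid from two fistulated cattle diluted 12 ml in 48 ml buffer with ryegrass substrate, incubated in sealed bottles at 39° C for 24-48 h in duplicate. Inhibitors added in DMF (stocks 1000-fold above highest assay level); total gas, methane and H2 measured automatically; 30 μM BES positive control, no-inhibitor negative control.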

Turning to `O=C(O)c1ccc(N2N=C(c3ccc(Cl)cc3)CC2c2ccc3nccnc3c2)cc1` (centres unmarked) [Compound 115, 4-(3-(4-Chlorophenyl)-5-(quinoxalin-6-yl)-4,5-dihydro-1H-pyrazol-1-yl)benzoic acid], the inhibition at 10 µM was 20.1 ± 1.1% and the inhibition at 50 µM came to 84 ± 10.6%. As to `O=C(CCC(=O)N1N=C(c2ccc(Cl)cc2)CC1c1ccc2nccnc2c1)NS(=O)(=O)c1ccccc1` (centres unmarked) [Compound 70, 4-(3-(4-Chlorophenyl)-5-(quinoxalin-6-yl)-4,5-dihydro-1H-pyrazol-1-yl)-4-oxo-N-(phenylsulfonyl) butanamide], the inhibition at 2 µM amounted to 27.1 ± 13.1% and the inhibition at 10 µM came to 88.9 ± 1.5%. For `O=C(O)CCC(=O)N1N=C(c2ccc(Cl)cc2)CC1c1ccc(F)c(F)c1` (centres unmarked) [Compound 112, 4-(3-(4-Chlorophenyl)-5-(3,4-difluorophenyl)-4,5-dihydro-1H-pyrazol-1-yl)-4-oxobutanoic acid], the inhibition at 50 µM was 21.7 ± 0.9%. For `COc1ccc(C2CC(c3ccc(Cl)cc3)=NN2C(=O)CCC(=O)O)c(OC)c1` (centres unmarked) [Compound 42, 4-(3-(4-Chlorophenyl)-5-(2,4-dimethoxyphenyl)-4,5-dihydro-1H-pyrazol-1-yl)-4-oxobutanoic acid], the inhibition at 10 µM is 10.5 ± 3.5% and the inhibition at 50 µM worked out at 80 ± 4.7%.

`CSc1ccc(C2=NN(C(=O)CCC(=O)O)C(c3ccc4nccnc4c3)C2)cc1` (centres unmarked) [Compound 62]: the inhibition at 50 µM came out at 31.8%. Consider `Cc1ccc(-c2ccc(C3=NN(C(=O)CCC(=O)O)C(c4ccc5nccnc5c4)C3)cc2)cc1` (centres unmarked) [Compound 23, 4-(3-(4′-Methyl-[1,1′-biphenyl]-4-yl)-5-(quinoxalin-6-yl)-4,5-dihydro-1H-pyrazol-1-yl)-4-oxobutanoic acid], for which the inhibition at 10 µM was determined as 69 ± 3.7% and the inhibition at 50 µM came to 94.8 ± 0.4%.

Consider `O=C(CCC(=O)N1N=C(c2ccc(Cl)cc2)CC1c1ccc2nccnc2c1)NS(=O)(=O)N1CCCC1` (centres unmarked) [Compound 128, 4-(3-(4-Chlorophenyl)-5-(quinoxalin-6-yl)-4,5-dihydro-1H-pyrazol-1-yl)-4-oxo-N-(pyrrolidin-1-ylsulfonyl) butanamide], for which the inhibition at 10 µM amounted to 53 ± 5.7%. Take `O=C(O)CCC(=O)N1N=C(c2ccc(Br)cc2)CC1c1ccc2nccnc2c1` (centres unmarked) [Compound 9, 4-(3-(4-Bromophenyl)-5-(quinoxalin-6-yl)-4,5-dihydro-1H-pyrazol-1-yl)-4-oxobutanoic acid]: the inhibition at 50 µM came out at 64.9 ± 1.9%.

For the compound `O=C(O)CCC(=O)N1N=C(c2ccc(-c3ccc(CC(F)(F)F)cc3)cc2)CC1c1ccc2nccnc2c1` (centres unmarked) [Compound 88, 4-Oxo-4-(5-(quinoxalin-6-yl)-3-(4′-(2,2,2-trifluoroethyl)-[1,1′-biphenyl]-4-yl)-4,5-dihydro-1H-pyrazol-1-yl)butanoic acid], the inhibition at 2 µM is < 5% and the inhibition at 10 µM is 83 ± 1.1%. Regarding `O=C(O)CCC(=O)N1N=C(c2ccc(Cl)cc2)CC1c1ccc2nonc2c1` (centres unmarked) [Compound 35, 4-(5-(Benzo[c][1,2,5]oxadiazol-5-yl)-3-(4-chlorophenyl)-4,5-dihydro-1H-pyrazol-1-yl)-4-oxobutanoic acid], the inhibition at 10 µM was 43.6 ± 6.6% and the inhibition at 50 µM came out at 91.3 ± 2.1%. On to `CC(C)(C)S(=O)(=O)NC(=O)CCC(=O)N1N=C(c2ccc(Cl)cc2)CC1c1ccc2nccnc2c1` (centres unmarked) [Compound 121, N-(tert-Butylsulfonyl)-4-(3-(4-chlorophenyl)-5-(quinoxalin-6-yl)-4,5-dihydro-1H-pyrazol-1-yl)-4-oxobutanamide], for which the inhibition at 10 µM turned out to be 9.8 ± 2.2%. With `CC(C)Oc1ccc(-c2ccc(C3=NN(C(=O)CCC(=O)NS(C)(=O)=O)C(c4ccc5nccnc5c4)C3)cc2)cc1` (centres unmarked) [Compound 117, 4-(3-(4′-Isopropoxy-[1,1′-biphenyl]-4-yl)-5-(quinoxalin-6-yl)-4,5-dihydro-1H-pyrazol-1-yl)-N-(methylsulfonyl)-4-oxobutanamide], the inhibition at 2 µM is 9.1 ± 2.4% and the inhibition at 10 µM stood at 72.5 ± 4%. Take `O=C(O)CCC(=O)N1N=C(c2ccc(-c3cccc(Cl)c3)cc2)CC1c1ccc2nccnc2c1` (centres unmarked) [Compound 18, 4-(3-(3′-Chloro-[1,1′-biphenyl]-4-yl)-5-(quinoxalin-6-yl)-4,5-dihydro-1H-pyrazol-1-yl)-4-oxobutanoic acid]: the inhibition at 2 µM is < 5%, the inhibition at 10 µM was found to be 83.6 ± 1.5% and the inhibition at 50 µM came to 94.1 ± 0.1%. As to `CC(C)(C)c1ccc(-c2ccc(C3=NN(C(=O)CCC(=O)O)C(c4ccc5nccnc5c4)C3)cc2)cc1` (centres unmarked) [Compound 87, 4-(3-(4′-(tert-Butyl)-[1,1′-biphenyl]-4-yl)-5-(quinoxalin-6-yl)-4,5-dihydro-1H-pyrazol-1-yl)-4-oxobutanoic acid], the inhibition at 10 µM stood at 6 ± 0.5%. In the case of `COc1ccc(-c2cccc(C3=NN(C(=O)CCC(=O)O)C(c4ccc5nccnc5c4)C3)c2)cc1` (centres unmarked) [Compound 99, 4-(3-(4′-Methoxy-[1,1′-biphenyl]-3-yl)-5-(quinoxalin-6-yl)-4,5-dihydro-1H-pyrazol-1-yl)-4-oxobutanoic acid], the inhibition at 10 µM was < 5% and the inhibition at 50 µM worked out at 71.8%. For `O=C(O)CCC(=O)N1N=C(c2ccc(-c3ccccc3)cn2)CC1c1ccc2nccnc2c1` (centres unmarked) [Compound 29, 4-Oxo-4-(3-(5-phenylpyridin-2-yl)-5-(quinoxalin-6-yl)-4,5-dihydro-1H-pyrazol-1-yl)butanoic acid], the inhibition at 50 µM came out at 33.3 ± 0.6%. In the case of `O=C(O)CCC(=O)N1N=C2c3cc(-c4ccccc4)ccc3CCC2C1c1ccc2nccnc2c1` (centres unmarked) [Compound 74, 4-Oxo-4-(8-phenyl-3-(quinoxalin-6-yl)-3,3a,4,5-tetrahydro-2H-benzo[g]indazol-2-yl)butanoic acid], the inhibition at 2 µM was determined as 9 ± 1.9%, the inhibition at 10 µM is 87.8 ± 0.7% and the inhibition at 50 µM came out at 97.2 ± 0.5%. As to `COc1ccc(-c2ccc(C3=NN(C(=O)CCC(=O)O)C(c4ccc5nccnc5c4)C3)cc2)cc1` (centres unmarked) [Compound 25, 4-(3-(4′-Methoxy-[1,1′-biphenyl]-4-yl)-5-(quinoxalin-6-yl)-4,5-dihydro-1H-pyrazol-1-yl)-4-oxobutanoic acid], the inhibition at 2 µM was < 5% and the inhibition at 10 µM amounted to 83.7 ± 0.4%.

With `O=C(O)CCC(=O)N1N=C(c2ccc(OC(F)(F)F)cc2)CC1c1ccc2nccnc2c1` (centres unmarked) [Compound 8, 4-Oxo-4-(5-(quinoxalin-6-yl)-3-(4-(trifluoromethoxy)phenyl)-4,5-dihydro-1H-pyrazol-1-yl)butanoic acid], the inhibition at 10 µM was determined as 22.6 ± 2.8% and the inhibition at 50 µM was found to be 75.2 ± 1.6%.

As for `O=C(O)/C=C/C(=O)N1N=C(c2ccc(Cl)cc2)CC1c1ccc2nccnc2c1` (centres unmarked) [Compound 51, (E)-4-(3-(4-Chlorophenyl)-5-(quinoxalin-6-yl)-4,5-dihydro-1H-pyrazol-1-yl)-4-oxobut-2-enoic acid], the inhibition at 50 µM came out at 57.1 ± 7.5%. Turning to `O=C(O)CCC(=O)N1N=C(c2ccccc2)CC1c1ccc2nccnc2c1` (centres unmarked) [Compound 1A, 4-Oxo-4-(3-phenyl-5-(quinoxalin-6-yl)-4,5-dihydro-1H-pyrazol-1-yl)butanoic acid], the inhibition at 50 µM was < 5%. In the case of `O=C(O)CCC(=O)N1N=C(c2ccc(-c3ccccc3Cl)cc2)CC1c1ccc2nccnc2c1` (centres unmarked) [Compound 17, 4-(3-(2′-Chloro-[1,1′-biphenyl]-4-yl)-5-(quinoxalin-6-yl)-4,5-dihydro-1H-pyrazol-1-yl)-4-oxobutanoic acid], the inhibition at 2 µM was < 5%, the inhibition at 10 µM came to 74.2 ± 7.8% and the inhibition at 50 µM was determined as 90 ± 1.2%. In the case of `CC(C)S(=O)(=O)NC(=O)CCC(=O)N1N=C(c2ccc(OC(F)(F)F)cc2)CC1c1ccc2nccnc2c1` (centres unmarked) [Compound 118, N-(Isopropylsulfonyl)-4-oxo-4-(5-(quinoxalin-6-yl)-3-(4-(trifluoromethoxy)phenyl)-4,5-dihydro-1H-pyrazol-1-yl) butanamide], the inhibition at 10 µM stood at 29.7 ± 6%. For `CS(=O)(=O)NC(=O)CCC(=O)N1N=C(c2ccc(OC(F)(F)F)cc2)CC1c1ccc2nccnc2c1` (centres unmarked) [Compound 56], the inhibition at 2 µM is < 5%, the inhibition at 10 µM was found to be 72.4 ± 10.6% and the inhibition at 50 µM was found to be 98.6%. Regarding `CC(C)Cc1ccc(-c2ccc(C3=NN(C(=O)CCC(=O)O)C(c4ccc5nccnc5c4)C3)cc2)cc1` (centres unmarked) [Compound 86, 4-(3-(4′-Isobutyl-[1,1′-biphenyl]-4-yl)-5-(quinoxalin-6-yl)-4,5-dihydro-1H-pyrazol-1-yl)-4-oxobutanoic acid], the inhibition at 10 µM amounted to 29 ± 8.6%. Turning to `O=C(O)CCC(=O)N1N=C(c2ccc(Cl)cc2)CC1c1ccc2c(c1)OCCO2` (centres unmarked) [Compound 39, 4-(3-(4-Chlorophenyl)-5-(2,3-dihydrobenzo[b][1,4]dioxin-6-yl)-4,5-dihydro-1H-pyrazol-1-yl)-4-oxobutanoic acid], the inhibition at 10 µM turned out to be 20 ± 5.1% and the inhibition at 50 µM stood at 79.2%. As for `COc1cc(C2CC(c3ccc(Cl)cc3)=NN2C(=O)CCC(=O)O)ccc1O` (centres unmarked) [Compound 45, 4-(3-(4-Chlorophenyl)-5-(4-hydroxy-3-methoxyphenyl)-4,5-dihydro-1H-pyrazol-1-yl)-4-oxobutanoic acid], the inhibition at 10 µM came to 9.9 ± 1.8% and the inhibition at 50 µM was 73.1 ± 8.6%.
